The data set in a line: Dynamic vapor sorption (moisture sorption/desorption). It counts as physicochemical. The conditions noted are these: for change of solid form post dynamic vapor sorption experiment: after DVS experiment up to 95% RH at 25° C.; for water absorbed (dynamic vapor sorption): up to 95% RH at 25° C. As to the method: Moisture sorption/desorption data were collected on a VTI SGA-100 Vapor Sorption Analyzer. NaCl and PVP were used as calibration standards. Samples were not dried prior to analysis. Sorption and desorption data were collected over a range from 5% to 95% RH at 10% RH increments under a nitrogen purge. The equilibrium criterion used for analysis was less than 0.0100% weight change in 5 minutes with a maximum equilibration time of 3 hours. Weight percentages reported in the data section are relative to the total sample mass introduced prior to equilibration at 5% RH as measured on the instrument.

For `CCCC[C@](C)(CO)Nc1nc(N)nc2cc(F)cnc12` [Compound I Gentisic Acid, (R)-2-((2-amino-7-fluoropyrido[3,2-d]pyrimidin-4-yl)amino)-2-methylhexan-1-ol gentisic acid], the “change of solid form post dynamic vapor sorption experiment” value (“change” for short) is “not have changed forms” and the “water absorbed (dynamic vapor sorption)” value is on record as “about 1.1%”.

Take `CCCC[C@](C)(CO)Nc1nc(N)nc2cc(F)cnc12` [Compound I Hippuric Acid, (R)-2-((2-amino-7-fluoropyrido[3,2-d]pyrimidin-4-yl)amino)-2-methylhexan-1-ol hippuric acid]: the “change” value is on record as “not have changed forms” and the “water absorbed (dynamic vapor sorption)” value is given as “about 0.68%”.

On to `CCCC[C@](C)(CO)Nc1nc(N)nc2cc(F)cnc12.O=C(O)CCC(=O)O` [Compound I Succinic Acid, (R)-2-((2-amino-7-fluoropyrido[3,2-d]pyrimidin-4-yl)amino)-2-methylhexan-1-ol succinic acid], for which the “change” value is “not have changed forms” and the “water absorbed (dynamic vapor sorption)” value was “about 1.2%”.

These data come from US11396509B2, “Solid forms of a toll-like receptor modulator” (Gilead Sciences, Inc., priority 2019, dated 2022).
